Source: paper PMC7894522, “Structure Based Design of Bicyclic Peptide Inhibitors of RbAp48” (Angewandte Chemie (International Ed. in English), 2020)
Starred links: 1 amine or outer side, 2 acyl side, 3 side chain; linkers in the order of their positions; H or OH if unused. Positions of bridges follow the written chain, without caps; N, C: chain ends. Residues, ends and D or L forms follow the SMILES beside them. Pyridine(2,6-diCH2) = c1cc(C[*:1])nc(C[*:2])c1; TBMB = c1c(C[*:1])cc(C[*:3])cc1C[*:2]; mXylylene = c1cc(C[*:1])cc(C[*:2])c1; pXylylene = c1cc(C[*:2])ccc1C[*:1]; X3 = COc1cc(C[*:1])cc(C[*:2])c1

Target: RbAp48 (Homo sapiens, UniProt Q09028)
Experiment: Competitive fluorescence polarization (FP) assay using complex of peptide 1 and RbAp48
Assay type: binding
Parameters: Full length RbAp48 was cloned; His tag followed by 3C cleavage site (N, cleaved yes); made in house; host or cells: Sf9 insect cells
Details: Supplemental Table 2; competitive FP, tracer 1 nM, RbAp48 15 nM, pH 7.5, 30 min room temperature; read-out: IC50
Procedure: The binding affinity of our library of synthetic cyclic peptides was evaluated by a competitive fluorescence polarization (FP) assay using a complex formed by peptide 1 and RbAp48. To reduce the length of the peptide it was truncated to the amino acids which seemed most critical according to the crystal structure (residues 676–689, pdb:4pbz). […] We chose to use a cyclization approach to regain affinity, that is, not to induce more interactions but through minimizing the entropic penalty upon binding by reducing the flexibility of the peptide. To this end two amino acids were chosen which are facing one another in the structure (see Figure 1 B/D/E). Two peptides were designed where glutamic acid was used in position 676 (4) or position 680 (5) and lysine in position 688 for both peptides (see Table 1). The macrocycles were formed by connecting the side chains via an amide bond (see Figure 1 D/E). Peptide synthesis was performed on Rink‐amide resin using the Fmoc‐strategy incorporating Fmoc‐L‐Glu(All)‐OH and Fmoc‐L‐Lys(Alloc)‐OH at the sites for cyclization. After completion of the linear synthesis the allyl protecting groups were removed using Pd^0 catalysis and the amide link was formed by using PyBOP. […] Therefore, a range of peptides was synthesized which were cyclized using the same amino acid positions but via a cysteine alkylation strategy (see Figure 1 D/E and Table 1). In this method the residues used for cyclization are replaced with cysteine and benzylic dibromides act as crosslinkers on the unprotected peptides. ^[11] Previous research has shown that such linkers can effectively stabilize cyclic peptides and yield high affinity ligands for protein–protein interaction inhibition. ^[12] Such a linker introduces a xylene group in close vicinity of the hydrophobic patch potentially reconstituting the lost key hydrophobic interactions. To explore a variety of macrocycle conformations we used either ortho‐, meta‐ or para‐substituted dibromides to exchange the linker in both 4 and 5 (see Figure 1 D/E and Table 1). ^[13]
Protein expression and purification
RbAp48 was expressed and purified by the Dortmund Protein Facility. Full length RbAp48 was cloned into a pOPIN vector ligating it to an N-terminal His tag followed by a 3C cleavage site. The protein was expressed from Sf9 cells for 48 h. Cells were harvested and lysed and the protein was purified by loading onto a HisTrap FF crude 5 ml column followed by on-column cleavage using Precission protease. The cleaved protein was then further purified using a HiLoad 26/60 Superdex 200 column.
Fluorescence polarization assay
Fluorescence polarization assays were performed in 384 wells plates in 80 µl volumes. The assay buffer contains 20 mM Tris-HCl, 150 mM NaCl, 0.01% Tween-20 at pH 7.5. The concentration of the fluorescently labelled peptides was 1 nM plates were incubated at room temperature for 30 min before they were read on a Tecan Spark plate reader (λex = 485 nm, λem = 535 nm).
For competitive assays the same conditions were used with a tracer concentration of 1 nM was used and a protein concentration of 15 nM .

Sequence of RbAp48 (Q09028 whole entry): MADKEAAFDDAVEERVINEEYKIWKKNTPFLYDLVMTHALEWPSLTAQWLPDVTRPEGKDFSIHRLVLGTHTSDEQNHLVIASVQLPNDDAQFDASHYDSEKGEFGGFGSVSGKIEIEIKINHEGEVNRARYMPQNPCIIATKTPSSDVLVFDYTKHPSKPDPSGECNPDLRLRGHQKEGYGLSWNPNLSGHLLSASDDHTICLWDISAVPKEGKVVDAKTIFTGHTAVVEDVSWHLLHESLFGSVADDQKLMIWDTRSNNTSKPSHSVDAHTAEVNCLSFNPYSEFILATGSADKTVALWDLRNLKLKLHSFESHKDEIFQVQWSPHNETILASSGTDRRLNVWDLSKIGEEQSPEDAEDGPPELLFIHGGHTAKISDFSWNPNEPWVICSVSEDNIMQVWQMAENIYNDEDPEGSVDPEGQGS

| SMILES | IC50 [nM] |
| --- | --- |
| CC(=O)N[C@H]1CSCc2cccc(c2)CSC[C@@H](C(=O)N[C@@H](C)C(N)=O)NC(=O)[C@@H]2CCCN2C(=O)[C@H](CCCCN)NC(=O)[C@H](Cc2ccc(O)cc2)NC(=O)[C@@H]2CCCN2C(=O)[C@H](Cc2c[nH]cn2)NC(=O)[C@H](CCCNC(=N)N)NC(=O)[C@H](C)NC(=O)[C@H](C)NC(=O)[C@H](CCCNC(=N)N)NC(=O)[C@H](CCCCN)NC(=O)[C@H]([C@@H](C)O)NC1=O [Peptide 26] (Ac-CTKRAARHPYKPCA-NH2; linker 1-13 via mXylylene) | 512 ± 48.4 |
| COc1cc2cc(c1)CSC[C@@H](C(=O)N[C@@H](C)C(N)=O)NC(=O)[C@@H]1CCCN1C(=O)[C@H](CCCCN)NC(=O)[C@H](Cc1ccc(O)cc1)NC(=O)[C@@H]1CCCN1C(=O)[C@H](CCCNC(=N)N)NC(=O)[C@H](CCCNC(=N)N)NC(=O)[C@H](C)NC(=O)[C@H](C)NC(=O)[C@H](CCCNC(=N)N)NC(=O)[C@H](CCCCN)NC(=O)[C@H]([C@@H](C)O)NC(=O)[C@@H](NC(C)=O)CSC2 [Peptide 28] (Ac-CTKRAARRPYKPCA-NH2; linker 1-13 via X3 (inferred)) | 38.4 ± 3.8 |
| CC(=O)N[C@H]1CSCc2cc3cc(c2)CSC[C@@H](C(=O)N[C@@H](CC(N)=O)C(N)=O)NC(=O)[C@@H]2CCCN2C(=O)[C@H](CC(C)C)NC(=O)[C@H](Cc2ccc(O)cc2)NC(=O)[C@@H]2CCCN2C(=O)[C@H](Cc2c[nH]cn2)NC(=O)[C@H](CCCNC(=N)N)NC(=O)[C@H](C)NC(=O)[C@H](CSC3)NC(=O)[C@H](Cc2c[nH]cn2)NC(=O)[C@H](Cc2c[nH]c3ccccc23)NC(=O)[C@@H]2CCCN2C(=O)[C@H](CCCNC(=N)N)NC1=O [Peptide 34] (Ac-CRPWHCARHPYLPCN-NH2; linker 1-6-14 via TBMB) | 153 ± 2.4 |
| CC(=O)N[C@H]1CSCc2ccc(cc2)CSC[C@@H](C(=O)N[C@@H](CC(N)=O)C(N)=O)NC(=O)[C@@H]2CCCN2C(=O)[C@H](CC(C)C)NC(=O)[C@H](Cc2ccc(O)cc2)NC(=O)[C@@H]2CCCN2C(=O)[C@H](Cc2c[nH]cn2)NC(=O)[C@H](CCCNC(=N)N)NC(=O)[C@H](C)NC(=O)[C@H](C)NC(=O)[C@H](Cc2c[nH]cn2)NC(=O)[C@H](Cc2c[nH]c3ccccc23)NC(=O)[C@@H]2CCCN2C1=O [Peptide 19] (Ac-CPWHAARHPYLPCN-NH2; linker 1-13 via pXylylene) | > 10000 |

Same assay, conditions: Table 1; competitive FP, tracer peptide 1 1 nM, RbAp48 15 nM, 20 mM Tris-HCl, 150 mM NaCl, 0.01% Tween-20, pH 7.5, 30 min room temperature; lower limit set by 15 nM protein; read-out: IC50

| SMILES | IC50 [nM] |
| --- | --- |
| CC(=O)N[C@H]1CSCc2cc3cc(c2)CSC[C@@H](C(=O)N[C@@H](C)C(N)=O)NC(=O)[C@@H]2CCCN2C(=O)[C@H](CCCCN)NC(=O)[C@H](Cc2ccc(O)cc2)NC(=O)[C@@H]2CCCN2C(=O)[C@H](CCCNC(=N)N)NC(=O)[C@H](CCCNC(=N)N)NC(=O)[C@H](C)NC(=O)[C@H](CSC3)NC(=O)[C@H](CCCNC(=N)N)NC(=O)[C@H](CCCCN)NC(=O)[C@H](C)NC1=O [Peptide 37] (Ac-CAKRCARRPYKPCA-NH2; linker 1-5-13 via TBMB) | 12.4 ± 3.2 |
| CC(=O)N[C@H]1CSCc2cccc(n2)CSC[C@@H](C(=O)N[C@@H](C)C(N)=O)NC(=O)[C@@H]2CCCN2C(=O)[C@H](CCCCN)NC(=O)[C@H](Cc2ccc(O)cc2)NC(=O)[C@@H]2CCCN2C(=O)[C@H](CCCNC(=N)N)NC(=O)[C@H](CCCNC(=N)N)NC(=O)[C@H](C)NC(=O)[C@H](C)NC(=O)[C@H](CCCNC(=N)N)NC(=O)[C@H](CCCCN)NC(=O)[C@H]([C@@H](C)O)NC1=O [Peptide 9] (Ac-CTKRAARRPYKPCA-NH2; linker 1-13 via Pyridine(2,6-diCH2)) | 34.9 ± 14 |
| CC(=O)N[C@H]1CCC(=O)NCCCC[C@@H](C(=O)N[C@@H](C)C(N)=O)NC(=O)[C@@H]2CCCN2C(=O)[C@H](CCCCN)NC(=O)[C@H](Cc2ccc(O)cc2)NC(=O)[C@@H]2CCCN2C(=O)[C@H](CCCNC(=N)N)NC(=O)[C@H](CCCNC(=N)N)NC(=O)[C@H](C)NC(=O)[C@H](C)NC(=O)[C@H](CCCNC(=N)N)NC(=O)[C@H](CCCCN)NC(=O)[C@H]([C@@H](C)O)NC1=O [Peptide 4] (Ac-ETKRAARRPYKPKA-NH2; lactam 1-13) | 47.7 ± 12.5 |
| CC(=O)N[C@H]1CSCc2cc3cc(c2)CSC[C@@H](C(=O)N[C@@H](C)C(N)=O)NC(=O)[C@@H]2CCCN2C(=O)[C@H](CCCCN)NC(=O)[C@H](Cc2ccc(O)cc2)NC(=O)[C@@H]2CCCN2C(=O)[C@H](C)NC(=O)[C@H](CCCNC(=N)N)NC(=O)[C@H](C)NC(=O)[C@H](CSC3)NC(=O)[C@H](CCCNC(=N)N)NC(=O)[C@H](CCCCN)NC(=O)[C@H]([C@@H](C)O)NC1=O [Peptide 41] (Ac-CTKRCARAPYKPCA-NH2; linker 1-5-13 via TBMB) | 24.6 ± 3.9 |
| CC(=O)N[C@@H](CCC(=O)O)C(=O)N[C@H](C(=O)N[C@@H](CCCCN)C(=O)N[C@@H](CCCNC(=N)N)C(=O)N[C@H]1CSCc2cccc(c2)CSC[C@@H](C(=O)N[C@@H](C)C(N)=O)NC(=O)[C@@H]2CCCN2C(=O)[C@H](CCCCN)NC(=O)[C@H](Cc2ccc(O)cc2)NC(=O)[C@@H]2CCCN2C(=O)[C@H](CCCNC(=N)N)NC(=O)[C@H](CCCNC(=N)N)NC(=O)[C@H](C)NC1=O)[C@@H](C)O [Peptide 11] (Ac-ETKRCARRPYKPCA-NH2; linker 5-13 via mXylylene) | 388 ± 69.8 |
| CC(=O)N[C@H]1CSCc2cccc(c2)CSC[C@@H](C(=O)N[C@@H](C)C(N)=O)NC(=O)[C@@H]2CCCN2C(=O)[C@H](CCCCN)NC(=O)[C@H](Cc2ccc(O)cc2)NC(=O)[C@@H]2CCCN2C(=O)[C@H](CCCNC(=N)N)NC(=O)[C@H](CCCNC(=N)N)NC(=O)[C@H](C)NC(=O)[C@H](C)NC(=O)[C@H](CCCNC(=N)N)NC(=O)[C@H](CCCCN)NC(=O)[C@H]([C@@H](C)O)NC1=O [Peptide 7] (Ac-CTKRAARRPYKPCA-NH2; linker 1-13 via mXylylene) | 18.7 ± 4.1 |
| CC(=O)N[C@H]1CSCc2cc3cc(c2)CSC[C@@H](C(=O)N[C@@H](C)C(N)=O)NC(=O)[C@@H]2CCCN2C(=O)[C@H](CCCCN)NC(=O)[C@H](Cc2ccc(O)cc2)NC(=O)[C@@H]2CCCN2C(=O)[C@H](CCCNC(=N)N)NC(=O)[C@H](CCCNC(=N)N)NC(=O)[C@H](C)NC(=O)[C@H](CSC3)NC(=O)[C@H](CCCNC(=N)N)NC(=O)[C@H](C)NC(=O)[C@H]([C@@H](C)O)NC1=O [Peptide 38] (Ac-CTARCARRPYKPCA-NH2; linker 1-5-13 via TBMB) | 263 ± 42.7 |
| CC(=O)N[C@H]1CSCc2cc3cc(c2)CSC[C@@H](C(=O)N[C@@H](C)C(N)=O)NC(=O)[C@@H]2CCCN2C(=O)[C@H](C)NC(=O)[C@H](Cc2ccc(O)cc2)NC(=O)[C@@H]2CCCN2C(=O)[C@H](CCCNC(=N)N)NC(=O)[C@H](CCCNC(=N)N)NC(=O)[C@H](C)NC(=O)[C@H](CSC3)NC(=O)[C@H](CCCNC(=N)N)NC(=O)[C@H](CCCCN)NC(=O)[C@H]([C@@H](C)O)NC1=O [Peptide 44] (Ac-CTKRCARRPYAPCA-NH2; linker 1-5-13 via TBMB) | 19.8 ± 3.6 |
| CC(=O)N[C@H]1CSCc2cc3cc(c2)CSC[C@@H](C(=O)N[C@@H](CCCCN)C(N)=O)NC(=O)[C@H](CCCNC(=N)N)NC(=O)[C@@H]2CCCN2C(=O)[C@H](C)NC(=O)[C@H]([C@@H](C)O)NC(=O)[C@H](CCCCN)NC(=O)[C@H](Cc2ccc(O)cc2)NC(=O)[C@H](CCCNC(=N)N)NC(=O)[C@H](CSC3)NC(=O)[C@H](C)NC(=O)[C@H](CCCNC(=N)N)NC(=O)[C@@H]2CCCN2C1=O [Peptide 36] (Ac-CPRACRYKTAPRCK-NH2; linker 1-5-13 via TBMB) | > 10000 |

Same assay, conditions: competitive FP assay

| SMILES | FP activity in words |
| --- | --- |
| CC(=O)N[C@H]1CSCc2cc3cc(c2)CSC[C@@H](C(=O)N[C@@H](CCCCN)C(N)=O)NC(=O)[C@H](CCCNC(=N)N)NC(=O)[C@@H]2CCCN2C(=O)[C@H](C)NC(=O)[C@H]([C@@H](C)O)NC(=O)[C@H](CCCCN)NC(=O)[C@H](Cc2ccc(O)cc2)NC(=O)[C@H](CCCNC(=N)N)NC(=O)[C@H](CSC3)NC(=O)[C@H](C)NC(=O)[C@H](CCCNC(=N)N)NC(=O)[C@@H]2CCCN2C1=O [Peptide 36] (Ac-CPRACRYKTAPRCK-NH2; linker 1-5-13 via TBMB) | completely lose affinity |
